Results from the supplement of paper PMC10307832.

Assays:
Assay in all cases: relative viability (nuclei count vs DMSO), 5 days (fraction); higher = more cells survive
[1] = system: 201T
In short: (§1)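 For relative viability, nuclei counts in treated wells were divided by those in vehicle wells. Lung cancer cell lines had been pin-tool dosed in 1536-well plates the day after seeding and cultured for 5 days, then fixed and stained in one step (final 0.05% Triton X-100, 1% formaldehyde, 1 ug/ml Hoechst) and imaged at 4×. Doses were one drug alone or a fixed anchor-drug dose plus five library-drug doses (not always all listed) in √10 steps, and values are duplicate-plate medians.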

[2] = system: ABC-1
In short: as §1

[3] = system: EPLC-272H
In short: as §1

[4] = system: HCC-78
In short: as §1

[5] = system: LCLC-103H
In short: as §1

[6] = system: LCLC-97TM1
In short: as §1

[7] = system: LOU-NH91
In short: as §1

[8] = system: NCI-H1355
In short: as §1

[9] = system: NCI-H1651
In short: as §1

[10] = system: NCI-H1734
In short: as §1

[11] = system: NCI-H1792
In short: as §1

[12] = system: NCI-H1793
In short: as §1

[13] = system: NCI-H1915
In short: as §1

[14] = system: NCI-H1993
In short: as §1

[15] = system: NCI-H460
In short: as §1

[16] = system: NCI-H596
In short: as §1

[17] = system: NCI-H650
In short: as §1

[18] = system: NCI-H661
In short: as §1

[19] = system: PC-3 [JPC-3]
In short: as §1

[20] = system: RERF-LC-KJ
In short: as §1

[21] = system: SK-MES-1
In short: as §1

[22] = system: SW 1573
In short: as §1

**Q.** Which relative viability ([1]; first compound 0.08 µM) does the source give for `Oc1nc(-c2ccc(C(F)(F)F)cc2)nc2c1CSCC2` [XAV939] + Nc1ncn([C@H]2C[C@H](O)[C@@H](CO)O2)c(=O)n1 [Decitabine] (partner 2 µM) here?
**A.** 0.87

**Q.** What about the relative viability ([1]; first compound 0.253 µM) of the same molecule?
**A.** 0.901

**Q.** What about the relative viability ([1]; first compound 0.8 µM) of the same molecule?
**A.** 0.779

**Q.** What about the relative viability ([1]; first compound 2.53 µM) of the same molecule?
**A.** 0.788

**Q.** What about the relative viability ([2]; first compound 0.253 µM) of the same molecule?
**A.** 1.27

**Q.** And the relative viability ([2]; first compound 0.8 µM)?
**A.** 0.975

**Q.** What about the relative viability ([2]; first compound 2.53 µM) of the same molecule?
**A.** 0.655

**Q.** And the relative viability ([3]; first compound 0.08 µM)?
**A.** 0.357

**Q.** And the relative viability ([3]; first compound 0.253 µM)?
**A.** 0.299

**Q.** What about the relative viability ([3]; first compound 0.8 µM) of the same molecule?
**A.** 0.385

**Q.** What about the relative viability ([3]; first compound 2.53 µM) of the same molecule?
**A.** 0.332

**Q.** And the relative viability ([4]; first compound 0.08 µM)?
**A.** 0.679

**Q.** And the relative viability ([4]; first compound 0.253 µM)?
**A.** 0.655

**Q.** And the relative viability ([4]; first compound 0.8 µM)?
**A.** 0.732

**Q.** And the relative viability ([4]; first compound 2.53 µM)?
**A.** 0.642

**Q.** What about the relative viability ([5]; first compound 0.08 µM) of the same molecule?
**A.** 0.756

**Q.** What about the relative viability ([5]; first compound 0.253 µM) of the same molecule?
**A.** 0.587

**Q.** What about the relative viability ([5]; first compound 0.8 µM) of the same molecule?
**A.** 0.687

**Q.** What about the relative viability ([5]; first compound 2.53 µM) of the same molecule?
**A.** 0.642

**Q.** And the relative viability ([6]; first compound 0.08 µM)?
**A.** 0.211

**Q.** And the relative viability ([6]; first compound 0.253 µM)?
**A.** 0.245

**Q.** And the relative viability ([6]; first compound 2.53 µM)?
**A.** 0.21

**Q.** And the relative viability ([7]; first compound 0.08 µM)?
**A.** 0.806

**Q.** And the relative viability ([7]; first compound 0.253 µM)?
**A.** 0.75

**Q.** And the relative viability ([7]; first compound 0.8 µM)?
**A.** 0.819

**Q.** And the relative viability ([7]; first compound 2.53 µM)?
**A.** 0.801

**Q.** And the relative viability ([8]; first compound 0.08 µM)?
**A.** 0.357

**Q.** What about the relative viability ([8]; first compound 0.253 µM) of the same molecule?
**A.** 0.309

**Q.** What about the relative viability ([8]; first compound 0.8 µM) of the same molecule?
**A.** 0.393

**Q.** And the relative viability ([8]; first compound 2.53 µM)?
**A.** 0.298

**Q.** And the relative viability ([9]; first compound 0.08 µM)?
**A.** 0.606

**Q.** And the relative viability ([9]; first compound 0.253 µM)?
**A.** 0.399

**Q.** What about the relative viability ([9]; first compound 0.8 µM) of the same molecule?
**A.** 0.625

**Q.** And the relative viability ([9]; first compound 2.53 µM)?
**A.** 0.426

**Q.** What about the relative viability ([10]; first compound 0.08 µM) of the same molecule?
**A.** 0.489

**Q.** And the relative viability ([10]; first compound 0.253 µM)?
**A.** 0.433

**Q.** What about the relative viability ([10]; first compound 0.8 µM) of the same molecule?
**A.** 0.494

**Q.** And the relative viability ([10]; first compound 2.53 µM)?
**A.** 0.475

**Q.** And the relative viability ([11]; first compound 0.08 µM)?
**A.** 0.604

**Q.** What about the relative viability ([11]; first compound 0.253 µM) of the same molecule?
**A.** 0.485

**Q.** What about the relative viability ([11]; first compound 0.8 µM) of the same molecule?
**A.** 0.503

**Q.** What about the relative viability ([11]; first compound 2.53 µM) of the same molecule?
**A.** 0.42

**Q.** What about the relative viability ([12]; first compound 0.08 µM) of the same molecule?
**A.** 0.506

**Q.** And the relative viability ([12]; first compound 0.253 µM)?
**A.** 0.403

**Q.** What about the relative viability ([12]; first compound 0.8 µM) of the same molecule?
**A.** 0.549

**Q.** What about the relative viability ([12]; first compound 2.53 µM) of the same molecule?
**A.** 0.416

**Q.** And the relative viability ([13]; first compound 0.08 µM)?
**A.** 0.253

**Q.** What about the relative viability ([13]; first compound 0.253 µM) of the same molecule?
**A.** 0.25

**Q.** What about the relative viability ([13]; first compound 0.8 µM) of the same molecule?
**A.** 0.265

**Q.** What about the relative viability ([13]; first compound 2.53 µM) of the same molecule?
**A.** 0.268

**Q.** What about the relative viability ([14]; first compound 0.08 µM) of the same molecule?
**A.** 0.527

**Q.** What about the relative viability ([14]; first compound 0.253 µM) of the same molecule?
**A.** 0.224

**Q.** What about the relative viability ([14]; first compound 0.8 µM) of the same molecule?
**A.** 0.567

**Q.** And the relative viability ([14]; first compound 2.53 µM)?
**A.** 0.467

**Q.** What about the relative viability ([15]; first compound 0.08 µM) of the same molecule?
**A.** 0.599

**Q.** And the relative viability ([15]; first compound 0.253 µM)?
**A.** 0.443

**Q.** And the relative viability ([15]; first compound 0.8 µM)?
**A.** 0.501

**Q.** And the relative viability ([15]; first compound 2.53 µM)?
**A.** 0.458

**Q.** And the relative viability ([16]; first compound 0.08 µM)?
**A.** 1

**Q.** What about the relative viability ([16]; first compound 0.253 µM) of the same molecule?
**A.** 0.976

**Q.** What about the relative viability ([16]; first compound 0.8 µM) of the same molecule?
**A.** 1.03

**Q.** What about the relative viability ([16]; first compound 2.53 µM) of the same molecule?
**A.** 0.928

**Q.** What about the relative viability ([17]; first compound 0.08 µM) of the same molecule?
**A.** 0.286

**Q.** What about the relative viability ([17]; first compound 0.253 µM) of the same molecule?
**A.** 0.305

**Q.** What about the relative viability ([17]; first compound 0.8 µM) of the same molecule?
**A.** 0.33

**Q.** What about the relative viability ([17]; first compound 2.53 µM) of the same molecule?
**A.** 0.325

**Q.** And the relative viability ([18]; first compound 0.08 µM)?
**A.** 0.542

**Q.** And the relative viability ([18]; first compound 0.253 µM)?
**A.** 0.493

**Q.** What about the relative viability ([18]; first compound 0.8 µM) of the same molecule?
**A.** 0.544

**Q.** What about the relative viability ([18]; first compound 2.53 µM) of the same molecule?
**A.** 0.509

**Q.** And the relative viability ([19]; first compound 0.253 µM)?
**A.** 0.724

**Q.** What about the relative viability ([19]; first compound 0.8 µM) of the same molecule?
**A.** 0.837

**Q.** And the relative viability ([19]; first compound 2.53 µM)?
**A.** 0.784

**Q.** What about the relative viability ([20]; first compound 0.08 µM) of the same molecule?
**A.** 0.717

**Q.** What about the relative viability ([20]; first compound 0.253 µM) of the same molecule?
**A.** 0.657

**Q.** And the relative viability ([20]; first compound 0.8 µM)?
**A.** 0.583

**Q.** And the relative viability ([20]; first compound 2.53 µM)?
**A.** 0.552

**Q.** And the relative viability ([21]; first compound 0.08 µM)?
**A.** 0.359

**Q.** And the relative viability ([21]; first compound 0.253 µM)?
**A.** 0.342

**Q.** And the relative viability ([21]; first compound 0.8 µM)?
**A.** 0.358

**Q.** And the relative viability ([21]; first compound 2.53 µM)?
**A.** 0.381

**Q.** And the relative viability ([22]; first compound 0.08 µM)?
**A.** 0.559

**Q.** What about the relative viability ([22]; first compound 0.253 µM) of the same molecule?
**A.** 0.436

**Q.** And the relative viability ([22]; first compound 0.8 µM)?
**A.** 0.437

**Q.** And the relative viability ([22]; first compound 2.53 µM)?
**A.** 0.453
